System: MDA
Experiment: In-vitro antioxidant assay, MDA
Type: biochemical
Protocol: The enzymatic assays of COXs, LOX, TAC, Catalase, MDA, GSH, SOD, TNF -α, and MPO were determined colorimetrically as mentioned previously in reports.
Microsoft Excel 2010 program. All the data in Table 4 was represented as mean ± SD [23].
Total antioxidant capacity is the measure of the number of free radicals scavenged by a test solution, being used to evaluate the antioxidant capacity of biological samples. […] The standard ascorbic acid results were (19.7, 17.2 and 13.1 IU/ml) for TAC, Catalase and SOD, respectively.

O=C1O[C@H]([C@@H](O)CO)C(O)=C1O [ascorbic acid] gave an MDA level of 15.3 µg/mL.

— publication PMC10077692, “Phytochemical profile, comparative evaluation of Satureja montana alcoholic extract for antioxidants, anti-inflammatory and molecular docking studies” (BMC Complementary Medicine and Therapies, 2023)
